From PubChem BioAssay AID732 (Emory University Molecular Libraries Screening Center, 2007)
Where “and” joins values, the source holds several entries; their conditions need not be identical. Identical values can stand only once. Calls of active or inactive are those of the source. The rule behind the calls is not given here.

Test system: in vivo angiogenesis, blood vessel count
Assay: angiogenesis inhibition in living animals, in vivo study, HTS (AID 732);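 note: zebrafish embryos dosed at one day post fertilization; 0% = reference inhibitor and 100% = plate mean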
Conditions: stronger effect = lower value;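 tested at 30 µM in the well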

SMILES	vessel count % control
CN(C)CCCO[C@@H]1[C@H]2OC(C)(C)O[C@H]2O[C@@H]1C(O)CO (some centres not stated)	88% (inactive)
Cc1ccc(C(=O)Nc2ccc(S(=O)(=O)O)c3cc(S(=O)(=O)O)cc(S(=O)(=O)O)c23)cc1NC(=O)c1cccc(NC(=O)Nc2cccc(C(=O)Nc3cc(C(=O)Nc4ccc(S(=O)(=O)O)c5cc(S(=O)(=O)O)cc(S(=O)(=O)O)c45)ccc3C)c2)c1	119% (inactive)
CC(N)=NCCCC[C@@H](N)C(=O)O	86.6% (inactive)
CCC1(C2=NCCN2)Cc2ccccc2O1 (configuration not stated)	68.5% (inactive)
CNC(=O)OCC[N+](C)(C)C	96.2% (inactive)
NC1(C(=O)O)CCc2cc(C(=O)O)ccc21 (configuration not stated)	79.6% (inactive)
NCC#Cc1ccccc1	107% (inactive)
NOCC(=O)O	114% (inactive)
C[C@]12CC[C@@H]3c4ccc(O)cc4CC[C@H]3[C@@H]1CC[C@@H]2O	104% (inactive)
CC(=O)O[C@H]1CC2(C)[C@@H](C[C@@H](O)[C@H]3[C@@]4(C)CC[C@@H](O)[C@@H](C)[C@@H]4CC[C@@]32C)C1=C(CCC=C(C)C)C(=O)O (some centres not stated)	100% (inactive)
N[C@@H](CCl)C(=O)O	101% (inactive)
O=C(NCCNCC(O)COc1ccc(O)cc1)N1CCOCC1 (configuration not stated)	89.9% (inactive)
CC(C)COCC(CN(Cc1ccccc1)c1ccccc1)N1CCCC1 (configuration not stated)	104% (inactive)
N#CC(C#N)=Cc1ccc(O)c(O)c1	119% (inactive)
CC(N)(Cc1ccc(O)c(O)c1)C(=O)O (configuration not stated)	108% (inactive)
Nc1ncnc2c1ncn2C1CCCC1	81.5% (inactive)
NC1CCN(c2cccc(Cl)n2)CC1	91.5% (inactive)
CC(=O)N[C@@H](CS)C(=O)O	96.5% (inactive)
COc1cc(C(O)CO)ccc1O (configuration not stated)	96.8% (inactive)
COc1ccc2c(c1O)-c1cccc3c1[C@@H](C2)N(C)CC3	90.5% (inactive)
NCCC(=O)NCCc1cnc[nH]1	84.2% (inactive)
O=C(CCc1ccc(O)cc1)c1c(O)cc(O)cc1O	124% (inactive)
COc1ccc(-n2nc(C(F)(F)F)cc2-c2ccc(Cl)cc2)cc1	126% (inactive)
CN(C)CCC(c1ccccc1)c1ccccn1 (configuration not stated)	109% (inactive)
CCCC(C(=O)OCCN(CC)CC)(c1ccccc1)c1ccccc1	98% (inactive)

SMILES	vessel count % control
NC1(C(=O)O)CCCCC1	110% (inactive)
NC(N)=NC(N)=Nc1ccccc1	72.6% (inactive)
C=CCN1C[C@@H](C)N([C@H](c2ccc(C(=O)N(CC)CC)cc2)c2cccc(OC)c2)C[C@@H]1C	85.2% (inactive)
c1ccc(C2CN3CCSC3=N2)cc1 (configuration not stated)	95.6% (inactive)
C[C@H]1O[C@@H](n2cc(F)c(=O)[nH]c2=O)[C@H](O)[C@@H]1O	108% (inactive)
C=CCN1CC[C@]23c4c5ccc(O)c4O[C@@H]2/C(=N/N=C2\CC[C@@]4(O)C6Cc7ccc(O)c8c7[C@@]4(CCN6CC=C)[C@@H]2O8)CC[C@@]3(O)C1C5	100% (inactive)
CC(C)Cc1ccc([C@H](C)C(=O)O)cc1	66.8% (inactive)
NC(N)=NC(N)=Nc1cccc(Cl)c1	103% (inactive)
O=C1NC(c2cccc([N+](=O)[O-])c2)=CCN1c1ccccc1O	91.3% (inactive)
NC(=O)CN1CCCC1=O	99.2% (inactive)
O=c1[nH]c2ccccc2n1CCCN1CCN(C(c2ccccc2)c2ccccc2)CC1	120% (inactive)
NC(=O)c1cccc(N)c1	117% (inactive)
CN1CCc2cccc3c2C1Cc1ccc(O)c(O)c1-3 (configuration not stated)	0% (inactive)
CN1C2CCC1CC(OC(=O)c1cc(Cl)cc(Cl)c1)C2 (configuration not stated)	77% (inactive)
C[C@]12CC[C@H](O)CC1=CC[C@@H]1[C@@H]2CC[C@]2(C)C(=O)CC[C@@H]12	106% (inactive)
O=c1n(CCCN2CCN(c3cccc(Cl)c3)CC2)nc2ccccn12	88% (inactive)
COC(=O)[C@@H](N)Cc1ccc(O)c(O)c1	99.1% (inactive)
CC(C)NCC(O)COc1cccc2ccccc12 (configuration not stated)	117% (inactive)
CN1CCc2cc(Cl)c(O)cc2[C@@H](c2ccccc2)C1	97.5% (inactive)
CN1C2CC(OC(=O)[C@H](CO)c3ccccc3)CC1C1OC12 (some centres not stated)	79.7% (inactive)
C(=C\c1ccccc1)/CN1CCN(C(c2ccccc2)c2ccccc2)CC1	88.9% (inactive)
CCOC(=O)C1=C(C)NC(C)=C(C(=O)OC)C1c1cccc(Cl)c1Cl (configuration not stated)	56% (inactive)
CC1CNCCN1S(=O)(=O)c1cccc2cnccc12 (configuration not stated)	97.5% (inactive) and 98.4% (inactive)
CCCn1c(=O)c2[nH]c(-c3ccc(OCC(=O)Nc4ccc(C#N)cc4)cc3)nc2n(CCC)c1=O	84.9% (inactive)
CC(C)(C)NCC(O)c1cc(O)cc(O)c1 (configuration not stated)	93.9% (inactive)

SMILES	vessel count % control
NCCC1CCCC(CCN)N1 (configuration not stated)	115% (inactive)
Nc1ncnc2c1ncn2[C@@H]1O[C@H](COP(=O)(O)OP(=O)(O)OP(=O)(O)OP(=O)(O)OC[C@@H]2O[C@H](n3cnc4c(N)ncnc43)C(O)[C@@H]2O)[C@H](O)C1O (some centres not stated)	89.7% (inactive)
COc1ccc2c3c1O[C@H]1C(=O)CC[C@@]4(O)C(C2)N(CC2CC2)CCC314 (some centres not stated)	124% (inactive)
NC(N)=NC(=O)c1nc(Cl)c(N)nc1N	117% (inactive)
CNCCCC1c2ccccc2C=Cc2ccccc21	96% (inactive)
CCn1cc(C(=O)O)c(=O)c2cc(F)c(N3CCNC(C)C3)c(F)c21 (configuration not stated)	89.7% (inactive)
O=c1cc(-c2ccc(O)cc2)oc2cc(O)cc(O)c12	87.4% (inactive)
FC(F)(F)c1ccccc1-n1ccnc1	93.4% (inactive)
NC(N)=Nc1ccc2[nH]c3c(c2c1)C[C@@]1(O)[C@H]2Cc4ccc(O)c5c4[C@@]1(CCN2CC1CC1)[C@H]3O5	101% (inactive)
NC(=O)C1=CN(C2OC(COP(=O)(O)OP(=O)(O)OC[C@H]3O[C@@H](n4cnc5c(N)ncnc54)C(OP(=O)(O)O)[C@H]3O)C(O)C2O)C=CC1 (some centres not stated)	101% (inactive)
COc1cc2nc(N3CCN(C(=O)C4COc5ccccc5O4)CC3)nc(N)c2cc1OC (configuration not stated)	103% (inactive)
O=c1[nH]cnc2[nH]ncc12	120% (inactive)
Clc1cccc(N2CCNCC2)c1	101% (inactive)
O=C1C(c2c(O)[nH]c3ccc(Cl)cc23)=Nc2ccccc21	87.6% (inactive)
CCCCCCCC/C=C\CCCCCCCC(=O)NCCc1ccc(O)c(O)c1	115% (inactive)
Cc1nc(N=Nc2ccc(C(=O)O)cc2)c(COP(=O)(O)O)c(C=O)c1O	93.9% (inactive)
CNCCc1c[nH]c2ccc(O)cc12	101% (inactive)
C[C@H](Cc1ccc2c(c1)OC(C(=O)O)(C(=O)O)O2)NC[C@H](O)c1cccc(Cl)c1	98.2% (inactive)
CC(C)(C=O)Cc1cc(C(C)(C)C)c(O)c(C(C)(C)C)c1	98.1% (inactive)
Nc1c2c(nc3ccccc13)CCCC2O (configuration not stated)	86.4% (inactive)
NC(Cc1ccc(N(CCCl)CCCl)cc1)C(=O)O (configuration not stated)	123% (inactive)
CC(N)C1CCC(C(=O)Nc2ccncc2)CC1 (configuration not stated)	111% (inactive)
N#C/C(=C\c1ccc(O)c(O)c1)C(=O)c1ccc(O)c(O)c1	124% (inactive)
COC(=O)[C@@H](N)CCCN=C(N)N[N+](=O)[O-]	95% (inactive)
Cc1cc(C(C)(C)C)c(O)c(C)c1CC1=NCCN1	106% (inactive)

SMILES	vessel count % control
O=C(/C=C/c1ccc(O)c(O)c1)OCCc1ccccc1	0% (inactive)
CCN(CC)CCCC(C)Nc1ccnc2cc(Cl)ccc12 (configuration not stated)	108% (inactive)
NS(=O)(=O)c1cccc2c1c([N+](=O)[O-])cc1nc(O)c(O)nc12	111% (inactive)
C=CCN1CC[C@]23CCCCC2[C@H]1Cc1ccc(O)cc13 (some centres not stated)	141% (inactive)
NCCNC(=O)c1ncsc1-c1cccc(F)c1	102% (inactive)
COc1cc2c(cc1OC)-c1cc(=Nc3c(C)cc(C)cc3C)n(C)c(=O)n1CC2	58.5% (inactive)
CN=c1nc(-c2ccccc2)n(-c2ccccc2)s1	125% (inactive)
NCCCCCC(=O)O	116% (inactive)
Nc1ncnc2c1ncn2[C@@H]1O[C@H](COP(=O)(O)CP(=O)(O)OP(=O)(O)O)[C@H](O)C1O (some centres not stated)	95.1% (inactive)
CCN(CC)CCCC(C)Nc1c2ccc(Cl)cc2nc2ccc(OC)cc12 (configuration not stated)	0% (inactive)
Nc1nc2ccc(OC(F)(F)F)cc2s1	77% (inactive)
CC[N+](CC)(CC)CCOc1cccc(OCC[N+](CC)(CC)CC)c1OCC[N+](CC)(CC)CC	101% (inactive)
Cc1ccc(S(=O)(=O)N[C@@H](Cc2ccccc2)C(=O)CCl)cc1	97.1% (inactive)
NCCCCNCCCN	122% (inactive)
CCCC[N+]1(C)C2CC(OC(=O)[C@H](CO)c3ccccc3)CC1C1OC12 (some centres not stated)	107% (inactive)
COC(=O)c1cc2c(cn1)[nH]c1ccccc12	92.7% (inactive)
CC1COc2c(N3CCN(C)CC3)c(F)cc3c(=O)c(C(=O)O)cn1c23 (configuration not stated)	74.9% (inactive)
N[C@@H](Cc1c[nH]c2ccc(O)cc12)C(=O)O	81.8% (inactive)
O=C1c2c(O)cc(O)cc2OC(c2ccc(O)c(O)c2)C1O (configuration not stated)	80.8% (inactive)
COc1ccc(NC(=O)c2ccc(-c3ccc(-c4noc(C)n4)cc3C)cc2)cc1N1CCN(C)CC1	93% (inactive)
CN=C(NC#N)Nc1ccc(C2=NNC(=O)CC2C)cc1 (configuration not stated)	106% (inactive)
COc1cc2c(cc1O)CC[C@@H]1[C@@H]2CC[C@]2(C)[C@@H](O)CC[C@@H]12	83.1% (inactive)
